Patent publication US10786525B2, “Method for treating haemorrhage, shock and brain injury” (priority 2013, dated 2020)

Key:
[1] = oral and/or intravenous 10, 25, 50, and 100 mg/kg; cited from earlier work
[2] = test system: isolated guinea-pig mesenteric artery; assay: Pressure myograph relaxation of AVP-constricted mesenteric artery (Example 4); settings: for relaxation of intact artery: 0.001 to 1 mM, luminal or abluminal; for abluminal versus luminal relaxation: adenosine: at 10 μM and 100 μM
Description: Male guinea pigs (250-300 g) were anesthetised and placed in a cradle and the abdomen opened. Second order mesenteric artery branches were isolated and mounted in a pressure myograph (see FIG. 4) under constant pressure of 60 mmHg and perfusion (luminal flow) of 100 uL/min with Krebs-Henseleit buffer (37° C.). Artery diameter was continuously measured using videomicroscopy (see FIG. 4). For the relaxation/vasodilation experiments arteries were equilibrated and then constricted with 10^−8 M arginine vasopressin (AVP). Adenosine, lidocaine or adenosine-lidocaine together were administered 2) luminally and 2) abluminally and concentration curves were obtained. Stock solutions of adenosine and lidocaine alone or adenosine-lidocaine combined were made in deionized water to 20 mM. A range of volumes were pipetted to provide contact concentrations with the vessel lumen or outer wall that ranged from 0.001 to 1 mM. At the end of experiments, arteries were dilated using calcium-free solution to obtain 100% relaxation. A number of arteries were denuded by introducing 5 ml air into the lumen with flow rate 1000 μl/min. The air outflow was then clamped until the intraluminal pressure reached 70 mmHg, flow rate was reduced to 2 μl/min and the vessel remained pressurized for 10 minutes

SMILES	safety in humans [1]	relaxation with or without intact endothelium [2]	relaxation of intact artery [2]	abluminal versus luminal relaxation [2]	artery diameter in the presence of endothelium [2]	relaxation when endothelium was absent ([2]; denuded)
NC(=O)c1ncn([C@@H]2O[C@H](CO)[C@@H](O)[C@H]2O)c1N [Acadesine, 5-amino-4-imidazole carboxamide ribonucleoside]	safe in humans	–	–	–	–	–
Nc1ncnc2c1ncn2[C@@H]1O[C@H](CO)[C@@H](O)[C@H]1O [adenosine]	–	relaxed the mesenteric artery in a dose dependent manner	increased relaxation	significantly more relaxation	–	–
CCN(CC)CC(=O)Nc1c(C)cccc1C [lidocaine]	–	–	failed to produce relaxation	no significant difference	did not significantly change mesenteric artery diameter	relaxed the artery
